Results as given in patent US7982021B2, “Nucleic acid molecules encoding emission ratiometric indicators of phosphoinositides” (The Johns Hopkins University, priority 2006, dated 2011).

Tested on: PIP3 and PI(3,4)P2
Experiment: FRET emission ratio imaging of InPAkt reporters in NIH3T3 cells upon growth factor stimulation
Type: cell-based
Conditions: for t1/2 of InPAkt response produced by the growth factor / time to reach plateau of InPAkt response produced by the growth factor / InPAkt emission ratio increase produced by the growth factor: NIH3T3 cells expressing InPAkt; for t1/2 of InPAkt response produced by the growth factor / time to reach plateau of InPAkt response produced by the growth factor: single ligand; for InPAkt emission ratio increase produced by the growth factor: single ligand: 50 ng/ml PDGF, 50 nM IGF-1 or 100 ng/ml insulin; for InPAkt emission ratio increase, sequential stimulation: agonists applied sequentially: insulin; for InPAkt emission ratio increase, sequential stimulation / t1/2 of InPAkt response, sequential stimulation / time of InPAkt emission ratio increase, sequential stimulation: then IGF-1, then PDGF; for t1/2 of InPAkt response, sequential stimulation / time of InPAkt emission ratio increase, sequential stimulation: insulin
Description: Cell Culture. HEK293 and NIH3T3 cells were plated onto sterilized glass coverslips in 35-mm dishes and grown to 50-90% confluency in DMEM (10% FBS) at 37° C. with 5% CO2. Cells were transfected with FUGENE®-6 (Roche), then serum starved for 24-36 h before imaging. Colocalization studies were performed by incubating transfected cells with Hoechst 33342 cell-permeable dyes (Molecular Probes) for staining nucleic acids.
Imaging. Cells were washed twice with Hanks' balanced salt solution buffer and maintained in the dark at room temperature with the addition of 50 ng/ml rat PDGF (Sigma), 100 ng/ml bovine insulin (Calbiochem), 50 nM IGF-1 (Sigma), or 20 μM LY294002 (Sigma) as described. Cells were imaged on a Zeiss Axiovert 200M microscope with a cooled CCD camera MicroMAX BFT512 (Roper Scientific, Trenton, N.J.) controlled by METAFLUOR 6.2 software (Universal Imaging, Downingtown, Pa.). Dual emission ratio imaging used a 420DF20 excitation filter, a 450DRLP dichroic mirror, and two emission filters (475DF40 for CFP and 535DF25 for YFP) alternated by a filter-changer Lambda 10-2 (Sutter Instruments, Novato, Calif.). Exposure time was 50-500 ms, and images were taken every 15-30 s. Fluorescence images were background-corrected by subtracting autofluorescence intensity of untransfected cells (or background with no cells) from the emission intensities of cells expressing fluorescent reporters. The ratios of yellow-to-cyan emissions were then calculated at different time points.
We next checked the ability of this chimera to detect changes in 3′ PIs in response to agonist stimulation. NIH3T3 cells expressing this construct were serum-starved then stimulated with 50 ng/ml platelet-derived growth factor (PDGF). Stimulation of endogenous PDGF receptor (PDGFR) generated a FRET increase, resulting in an increase in the ratio of yellow-to-cyan emissions (FIGS. 1D, 1E), which was detectable within several seconds and reached a plateau of 25.4±3.7% [average±std] […] The FRET change occurred in the plasma membrane and was accompanied by the translocation of the reporter (FIG. 1D), reiterating that 3′ PIs are mainly produced at the plasma membrane (22). To verify that the FRET response is caused by binding of PIP3 and PI(3,4)P2, we generated a variant of the reporter in which two critical residues in the PH domain, Arg23 and Arg25, which mainly contribute to D-3 phosphate recognition (20), are mutated.

[1] = NIH3T3 cells, PDGF first, followed by IGF-1

Substance | t1/2 of InPAkt response produced by the growth factor [min] | time to reach plateau of InPAkt response produced by the growth factor [min] | InPAkt emission ratio increase produced by the growth factor | InPAkt emission ratio response, reversed order of ligand addition [1] | t1/2 of InPAkt response, reversed order of ligand addition [1] [min] | time of InPAkt response, reversed order of ligand addition [1] [min] | InPAkt emission ratio increase, sequential stimulation (NIH3T3 cells) | t1/2 of InPAkt response, sequential stimulation (NIH3T3 cells) [min] | time of InPAkt emission ratio increase, sequential stimulation (NIH3T3 cells) [min]
PDGF | 3.45 ± 0.65 | 5 to 9 | 25.4±3.7% | 24.2 ± 1.5% | 3.9 ± 0.2 | 7 to 9 | 14.6±1.4% | 3.2 ± 0.2 | 6 to 7
insulin: bovine insulin (Calbiochem) |  |  | did not generate any discernable response |  |  |  | did not generate any appreciable change |  | 
IGF-1: insulin-like growth factor 1 (Sigma) | 5.4 ± 0.4 | 10 to 12 | 6.5±0.8% | not enhanced |  |  | 6.8±0.9% | 5.2 ± 0.1 | 10 to 12
